Test results: patent US20210347823A1, “METHODS OF PHYSICOCHEMICAL-GUIDED PEPTIDE DESIGN AND NOVEL PEPTIDES DERIVED THEREFROM” (Massachusetts Institute of Technology, priority 2018, published 2021)

Columns and labels:
[1] = test system: HEK293 human embryonic kidney cells; assay: Cytotoxicity assay (MTS); assay type: cell-based; details: for toxicity at 64 μmol L^−1: assay not stated; for Cytotoxicity: HEK293, 48 h, MTS, peptides 0-64 μmol L^−1
Method: FIGS. 7A-7B. Cytotoxicity of engineered peptides. FIG. 7A. Schematic of the experimental design for cytotoxicity assays of Pol-CP—NH2 and derivatives against HEK293 human embryonic kidney cells. Briefly, cells were cultured in DMEM medium supplemented with FBS and antibiotics at 37° C. and 5% CO2. FIG. 7B. Results obtained by seeding HEK293 50,000 cells and incubating with peptides' solution (0-64 μmol L^−1) at 37° C. for 48 h. Cell viability was measured by MTS assay. All experiments were performed in triplicate.
Cytotoxicity assays. Human embryonic kidney 293 (HEK 293) cells were cultured in Dulbecco's Modified Eagle Medium (DMEM) supplemented with 10% Fetal Bovine Serum (FBS) and 1% penicillin-streptomycin at 37° C. in 5% CO2. The day before treatment, 50,000 HEK 293 cells were seeded into each well in 96-well plates. The peptides were added at concentrations ranging from 0 to 64 ? mol L^−1 and 48 h after exposure, cell viability was measured by means of MTS (dimethylthiazol-carboxymethoxyphenyl-sulfophenyl-tetrazolium) assay. Experiments were performed in triplicate for each condition.

human red blood cells = assay: Hemolytic activity assay; assay type: cell-based; details: for HC50: concentration needed for 50% hemolysis, human RBC in PBS, room temperature, 1 h, 0.1-100 μmol L^−1; for hemolytic activity: range of concentrations evaluated 0-100 μmol L^−1
Method: FIGS. 6A-6B. Hemolysis and resistance to protease-mediated degradation of engineered peptides. FIG. 6A. Schematic of experimental design and hemolytic assay results of Pol-CP—NH2 and derivatives, where hemolytic activity was evaluated by incubating the peptides (0.1-100 μmol L^−1) with human red blood cells in PBS at room temperature for 1 h. Experiments were performed in triplicate, (*p<0.05). FIG. 6B. Resistance to degradation of Pol-CP—NH2 and analogs exposed to fetal bovine serum (FBS) proteases for 6 h. Experiments were done in triplicate.
Hemolytic Activity Assays. Human erythrocytes were collected and washed three times by centrifugation at 300×g with PBS (pH 7.4). After the last centrifugation, the cells were resuspended in PBS pH 7.4. Aliquots at a concentration of 0.1 to 100 ? mol L^−1 of the peptides were added to the 96-well microplate, where in each well containing 50 ? L of a suspension of erythrocytes to 0.4% in a phosphate saline buffer (10 mmol L^−1 Na2HPO4, 1.8 mmol L^−1 […], pH 7.4, 137 mmol L^−1 NaCl and 2.7 mmol L^−1KCl). After that, the samples were incubated at room temperature for 1 h. Hemolysis was determined by reading absorbance at 405 nm of each well in a bed of plates. 1% SDS in PBS solution was used as positive control (Shalel S. et al., J. Colloid Interface Sci. 252, 66-76 (2002); Love L. J. Cell. Comp. Physiol. 36, 133-148 (1950)) and as negative control was used PBS only. MHC was defined as the maximal non-hemolytic concentration.

P. aeruginosa = assay: MIC against P. aeruginosa (strain not given); assay type: cell-based, Pseudomonas aeruginosa
Text: FIGS. 2A-2E. Design, physicochemical features and activity of Pol-CP—NH2 and Ala-scan analogs. FIG. 2A. Theoretical physicochemical properties of interest of the wild type and Ala-scan analogs, where H denotes hydrophobicity, μH is the hydrophobic moment, q represents the net charge and P/N is the ratio of polar/non-polar residues in the sequence. Top to bottom, left to right the sequences correspond to SEQ ID NOs: 1-13. FIG. 2B. Schematic of the in vitro biological activity experimental design. Briefly, 10^4 bacterial cells and serially diluted peptides (0-128 μmol L^−1) were added to a 96-well plate and incubated at 37° C. One day after the exposure, the solution in each well was measured in a microplate reader (600 nm) to check inhibition of bacteria compared to the untreated controls and presented as heat maps of antimicrobial activities (μmol L^−1) against four bacteria strains: E. coli strain BL21, S. aureus strain ATCC12600 and P. aeruginosa strains PA01, and PA14. Assays were performed in triplicates. FIG. 2C. Graph correlating MIC (μmol L^−1) averages vs H and (FIG. 2D) MIC (μmol L^−1) averages vs μH, where dots […] the dashed line show peptides with higher activity compared to the wild type, in which one can observe ranges of optimal activity in determined intervals of H and μH values. FIG. 2E. […]

Substance	toxicity at 64 μmol L^−1 [1]	Cytotoxicity [1]	Cytotoxicity ([1]; listed as wild-type peptide)	HC50 (human red blood cells)	hemolytic activity (human red blood cells)	MIC against P. aeruginosa (P. aeruginosa; strain not stated)	Cytotoxicity ([1]; listed as [Lys]^7-Pol-CP—NH2)	cytotoxic concentration relative to MIC against P. aeruginosa ([1]; HEK293 cytotoxicity vs MIC)	hemolytic activity (concentration at which hemolytic) (human red blood cells; human red blood cells, range evaluated 0-100 μmol L^−1)	activity against P. aeruginosa (P. aeruginosa; in vitro, selection of peptides for the mouse model)
H-ILGTILGLLKSL-NH2 [WT, ILGTILGLLKSL-NH2, reference compound]	toxic	32.0 µmol/L	32 µmol/L	50.0 µmol/L	hemolytic	64 µM	–	–	–	–
H-ILGTILKLLKSL-NH2 [Peptide 16, ILGTILKLLKSL-NH2]	toxic	16.0 µmol/L	–	12.5 µmol/L	hemolytic	–	16 µmol/L	two- to four-fold higher	12.5 µmol/L	high activity
